# Results published in ChEMBL document CHEMBL4622856, “Essential Medicinal Chemistry of Essential Medicines” (J Med Chem, 2020).
# Assay: Lipophilicity, log P of the compound
# Assay type: physicochemical
# Settings: octanol/water
row,Structure (SMILES),logP
1,Nc1nc2c(ncn2COCCO)c(=O)[nH]1 [ACYCLOVIR],1 to 4
2,O=c1[nH]cc(F)c(=O)[nH]1 [FLUOROURACIL],1 to 4
3,Clc1ccc(COC(Cn2ccnc2)c2ccc(Cl)cc2Cl)c(Cl)c1 (stereo unspecified) [MICONAZOLE],> 5
4,CC1(C)C(C=C(Cl)Cl)C1C(=O)OCc1cccc(Oc2ccccc2)c1 (stereo unspecified) [PERMETHRIN],> 5
5,CN(C/C=C/C#CC(C)(C)C)Cc1cccc2ccccc12 [TERBINAFINE],> 5
6,NC(N)=O [UREA],1 to 4
